This assay deals with Echovirus 9. Briefly: Inhibitory activity against Echovirus 9 using plaque reduction assay. (In a plaque reduction assay, fewer plaques than in the control indicate reduced infectivity or spread.)

In turn, `C[C@H](CCOc1ccc(-c2ccc(Cl)cc2)cc1)CCN1CCN(c2ccncc2)C1=O` [1-[(S)-5-(4'-Chloro-biphenyl-4-yloxy)-3-methyl-pentyl]-3-pyridin-4-yl-imidazolidin-2-one] yielded a half-inhibitory concentration (IC50) above 25 µM.

Usually IC50 stands for the concentration at which inhibition is half-maximal. Read a high IC50 as weaker potency in that assay.

The values above are taken from BindingDB's records for doi:10.1016/j.bmcl.2005.06.069 (National Health Research Institutes, 2005).
